The values that follow come from US11685716B2, “Plant growth inhibiting agent, and plant growth inhibiting method using same” (NATIONAL UNIVERSITY CORPORATION KUMAMOTO UNIVERSITY, priority 2017, dated 2023).

In one test the test system is thale cress. Nature of the test: Plant growth inhibition index, thale cress on agar medium in test tube (Evaluation 8, 9). The format is in vivo, thale cress (Col-0, wild-type strain). Also on record: key: 0: No effect; 1: Growth of the root part was inhibited 50% or less compared with non-treated area.; 2: Growth of the root part was inhibited 50% or more compared with non-treated area.; 3: Growth of the root part was substantially inhibited.; 4: Germination was inhibited. To be noted: for Index: Concentration 200 μM, 8 days (Evaluation 9, Table 2). On the procedure: 0.44% (w/v) Mixed salts for Murashige and Skoog medium (SIGMA), 1% (w/v) sucrose, and 0.05% (w/v) MES were mixed, and pH of the solution was adjusted to pH 5.7 with potassium hydroxide. 1.5% (w/v) Agar was added to the mixture, which was sterilized at 120° C. in an autoclave for 20 minutes. The test compound and dimethylformamide containing 1.5% of polyoxyethylenesorbitan monolaurate for a control experiment, were added at this stage and blended. In addition, the compound was used by adjusting an addition concentration to 200 μM. Four ml each of the medium was dispensed in sterile glass test tube ([…] RIKA GLASS CO., LTD.) to prepare agar medium.
As a plant material, Col-0, which is a wild-type strain of thale cress, was used.
Seeds, after their surfaces were sterilized, were planted on the agar medium, and the growth of the plant was carried out in a plant incubator (CFH-405) under the conditions of an illuminance of 3 at 23° C. with constant light. The plants on the agar medium were grown for 8 days in the chamber.
The plant growth inhibition effect of the compounds was evaluated by conversion to indexes according to the following investigation criteria.

Another test concerns Japanese millet. Nature of the test: Seed treatment, plant growth inhibition index (Evaluation 11). Type of test: in vivo. Also on record: key: 0: No effect; 1: Growth of the root part was inhibited 50% or less compared with non-treated area.; 2: Growth of the root part was inhibited 50% or more compared with non-treated area.; 3: Growth of the root part was substantially inhibited.; 4: Germination was inhibited. The protocol: (§1) The compound of the present invention (2 mg) was dissolved in a 1.5% Tween dimethylformamide solution (100 μL) to use as a test chemical solution.
(§2) Eight mL of sterilized water was poured to a cherry cup (100Φ×45 mm) lined with a filter paper, subsequently 81.1 μL of the sterilized water was removed, and 81.1 μL of the test chemical solution was added such that a final concentration of the compound was 800 μM.
(§3) Further, cherry cups were similarly prepared such that a final concentration of the compound was 200 μM.
(§4) Seeds (Japanese millet: 3 grains, velvet leaf: 6 grains, Ragweed: 8 grains, morning glory: 2 grains) were planted on the filter paper in the cherry cups, followed by growing the plants in a thermostatic chamber at 25° C. under a light-dark cycle in which a light period is 12 hours and a dark period is 12 hours for 6 days.
(§5) In addition, with regards to the compound (9a) and the compound (9b), the plants were tested for 7 days.
(§6) Plant growth inhibition effects of the compounds were evaluated by conversion to indexes according to the following investigation criteria.

A further test deals with Ragweed. Described as above. The format is in vivo. Also on record: key: 0: No effect; 1: Growth of the root part was inhibited 50% or less compared with non-treated area.; 2: Growth of the root part was inhibited 50% or more compared with non-treated area.; 3: Growth of the root part was substantially inhibited.; 4: Germination was inhibited. On the procedure: as §1, §2, §3, §4, §5, §6

A further test concerns morning glory. The description is as above. The format is in vivo. Also on record: key: 0: No effect; 1: Growth of the root part was inhibited 50% or less compared with non-treated area.; 2: Growth of the root part was inhibited 50% or more compared with non-treated area.; 3: Growth of the root part was substantially inhibited.; 4: Germination was inhibited. On the procedure: as §1, §2, §3, §4, §5, §6

Test [1] has as its system velvet leaf. Described as above. Type of test: in vivo. Also on record: key: 0: No effect; 1: Growth of the root part was inhibited 50% or less compared with non-treated area.; 2: Growth of the root part was inhibited 50% or more compared with non-treated area.; 3: Growth of the root part was substantially inhibited.; 4: Germination was inhibited. On the procedure:
as §1, §2, §3, §4, §5, §6

The test system of a further test is Japanese bristlegrass. Nature of the test: Spray treatment to stems and leaves, killing weed index (Evaluation 10). Type of test: in vivo. The following applies: 2000 g active ingredient per hectare, sprayed liquid amount 250 L/ha, two weeks later. The protocol:
(§7) POA allyl phenyl ether (4.1 parts by weight), POE-POP glycol (1 part by weight), POE sorbitan laurate (0.8 parts by weight), glycerin (2.6 parts by weight), dimethylformamide (65.9 parts by weight), N-methylpyrrolidone (5.1 parts by weight), cyclohexanone (15.4 parts by weight), and aromatic hydrocarbon (5.1 parts by weight) were mixed and dissolved to prepare an emulsion. The compounds of the present invention (4 mg) were dissolved in this emulsion (100 μL) to prepare a test emulsion. In addition, POA means “polyoxyalkylene”, POE means “polyoxyethylene”, and POP means “polyoxypropylene.”
(§8) Four hundred μL of the above test emulsion was diluted with 7600 μL of water to use as a test spray liquid.
(§9) Further, 400 μL of the above test emulsion was diluted with 1600 μL of a 1% Tween20 aqueous solution to use as a spray liquid for a small amount spray test.
(§10) For a comparative spray liquid, 53 μL of a 30% pendimethalin emulsion (Gogosan emulsion: manufactured by BASF Japan) as a control pesticides was diluted with 7947 μL of water. Further, for a comparative spray liquid for a small amount spray test, 53 μL of the 30% pendimethalin emulsion was diluted with 1947 μL of water.
(§11) A 150 cm^2 pot was filled with a soil, seeds of each purple amaranth, Japanese bristlegrass, southern crabgrass, and velvet leaf were sown on the surface layer, lightly covered with a soil and grown in a greenhouse. When each plant grew to a plant height of 2 to 9 cm, the test spray liquid was sprayed to the stem and leaf parts with a small spraying machine such that an active ingredient amount was 2000 g per hectare and a sprayed liquid amount was 1000 L per hectare.
(§12) Similarly, the test spray liquid for a small amount spray test was sprayed to the stem and leaf parts with a small spraying machine such that an active ingredient amount was 2000 g per hectare and a sprayed liquid amount was 250 L per hectare.
(§13) Two weeks later, the above-ground grass weight in non-treated areas and the above-ground grass weight in treated areas, by the weed, were measured to calculate a killing weed rate by the following calculating formula.
(§14) (a) Calculating Formula of Weeding Rate Killing weed rate (%)=(above-ground grass weight in non-treated area−above-ground grass weight in treated area)/(above-ground grass weight in non-treated area)×100 (b) Killing Weed Indexes
(§15) The obtained killing weed rates were evaluated, such that a killing weed index was “10” when a killing weed rate is 100%, as “9” when a killing weed rate is 99% to 90%, “8” when a killing weed rate is 89% to 80%, “7” when a killing weed rate is 79% to 70%, “6” when a killing weed rate is 69% to 60%, “5” when a killing weed rate is 59% to 50%, “4” when a killing weed rate is 49% to 40%, “3” when a killing weed rate is 39% to 30%, “2” when a killing weed rate is 29% to 20%, “1” when a killing weed rate is 19% to 10%, and “0” when a killing weed rate is 9% to 0%.

The subject of a further test is purple amaranth. The test is described as above. To be noted: 2000 g active ingredient per hectare, two weeks later. Type of test: in vivo. On the procedure: as §7, §8, §9, §10, §11, §12, §13, §14, §15
For the next test, the system named is southern crabgrass. The test is described as above. The format is in vivo. The following applies: 2000 g active ingredient per hectare, two weeks later. On the procedure:
as §7, §8, §9, §10, §11, §12, §13, §14, §15

Test [2] concerns velvet leaf. Described as above. The format is in vivo. The following applies: 2000 g active ingredient per hectare, two weeks later. On the procedure:
as §7, §8, §9, §10, §11, §12, §13, §14, §15

[3] abbreviates: 200 μM, 6 days (9a, 9b: 7 days).
The mark [4] stands for this setting: sprayed liquid amount 1000 L/ha.

With `O=C(O)c1cccn1OCc1ccc(Oc2ccccc2)cc1` [Compound 8f], the “index on the plant growth inhibition effect” value in the test with thale cress (200 μM, 8 days (Evaluation 8)) was found to be 3. Besides, the “plant growth inhibition index, Japanese millet” value is 3 (Growth of the stem and leave parts was inhibited 30% or more compared with non-treated area, or growth of the only root part was inhibited 60% or more compared with non-treated area.) with Japanese millet (setting [3]); 4 (Growth of the stem and leave parts was inhibited 40% or more compared with non-treated area, or growth of the only root part was inhibited 80% or more compared with non-treated area.) with Japanese millet (800 μM, 6 days). Moreover, the “plant growth inhibition index, Ragweed” value is 0 with Ragweed (setting [3]); 5 (Growth of the stem and leave parts was inhibited 50% or more compared with non-treated area, or growth of the only root part was inhibited 100% or more compared with non-treated area.) with Ragweed (800 μM, 6 days). Also, the “plant growth inhibition index, Morning glory” value is 0 with morning glory (setting [3]) and 0 in the test on morning glory (800 μM, 6 days). Also, the “plant growth inhibition index, Velvet leaf” value in the test on velvet leaf [1] (setting [3]) is 0; in the test with velvet leaf [1] (800 μM, 6 days), 5 (Growth of the stem and leave parts was inhibited 50% or more compared with non-treated area, or growth of the only root part was inhibited 100% or more compared with non-treated area.).

As for `CCCCCCCCCOn1cccc1C(=O)N(C)C` [Compound 9g], the Index in the test on thale cress was 3. Also, the “plant growth inhibition index, Japanese millet” value in the test on Japanese millet (setting [3]) is 3 (Growth of the stem and leave parts was inhibited 30% or more compared with non-treated area, or growth of the only root part was inhibited 60% or more compared with non-treated area.); with Japanese millet (800 μM, 6 days) it was 4 (Growth of the stem and leave parts was inhibited 40% or more compared with non-treated area, or growth of the only root part was inhibited 80% or more compared with non-treated area.). The “plant growth inhibition index, Ragweed” value in the test on Ragweed (setting [3]) was 5 (Growth of the stem and leave parts was inhibited 50% or more compared with non-treated area, or growth of the only root part was inhibited 100% or more compared with non-treated area.); with Ragweed (800 μM, 6 days), 7 (Growth of the stem and leave parts was inhibited 70% or more compared with non-treated area.). Besides, the “plant growth inhibition index, Morning glory” value in the test on morning glory (setting [3]) stood at 0; with morning glory (800 μM, 6 days), 0. In addition, the “plant growth inhibition index, Velvet leaf” value in the test with velvet leaf [1] (setting [3]) is 3 (Growth of the stem and leave parts was inhibited 30% or more compared with non-treated area, or growth of the only root part was inhibited 60% or more compared with non-treated area.); in the test with velvet leaf [1] (800 μM, 6 days), 3 (Growth of the stem and leave parts was inhibited 30% or more compared with non-treated area, or growth of the only root part was inhibited 60% or more compared with non-treated area.).

`CCCCCCCCCOn1cccc1C(=O)N1CCOCC1` [Compound 9h] came in with an Index in the test on thale cress of 3. Further, the “plant growth inhibition index, Japanese millet” value with Japanese millet (setting [3]) was 3 (Growth of the stem and leave parts was inhibited 30% or more compared with non-treated area, or growth of the only root part was inhibited 60% or more compared with non-treated area.); in the test on Japanese millet (800 μM, 6 days), 6 (Growth of the stem and leave parts was inhibited 60% or more compared with non-treated area.). Moreover, the “plant growth inhibition index, Ragweed” value in the test with Ragweed (setting [3]) is 0; with Ragweed (800 μM, 6 days) it was 6 (Growth of the stem and leave parts was inhibited 60% or more compared with non-treated area.). Moreover, the “plant growth inhibition index, Morning glory” value is 0 with morning glory (setting [3]); 4 (Growth of the stem and leave parts was inhibited 40% or more compared with non-treated area, or growth of the only root part was inhibited 80% or more compared with non-treated area.) in the test on morning glory (800 μM, 6 days). The “plant growth inhibition index, Velvet leaf” value was 3 (Growth of the stem and leave parts was inhibited 30% or more compared with non-treated area, or growth of the only root part was inhibited 60% or more compared with non-treated area.) in the test with velvet leaf [1] (setting [3]); 5 (Growth of the stem and leave parts was inhibited 50% or more compared with non-treated area, or growth of the only root part was inhibited 100% or more compared with non-treated area.) with velvet leaf [1] (800 μM, 6 days).

Regarding `CCC(CC)Nc1c([N+](=O)[O-])cc(C)c(C)c1[N+](=O)[O-]` [pendimethalin, reference compound], the “killing weed index, Japanese bristlegrass” value with Japanese bristlegrass is reported as 6 (“6” when a killing weed rate is 69% to 60%). Moreover, the “killing weed index, Purple amaranth” value with purple amaranth (sprayed liquid amount 250 L/ha) is given as 6 (“6” when a killing weed rate is 69% to 60%); in the test on purple amaranth (setting [4]), 0 (“0” when a killing weed rate is 9% to 0%). Moreover, the “killing weed index, Southern crabgrass” value in the test with southern crabgrass (sprayed liquid amount 250 L/ha) and in the test with southern crabgrass (setting [4]) was 6 (“6” when a killing weed rate is 69% to 60%) throughout. The “killing weed index, Velvet leaf” value is listed as 5 (“5” when a killing weed rate is 59% to 50%) in the test with velvet leaf [2] (sprayed liquid amount 250 L/ha) and 4 (“4” when a killing weed rate is 49% to 40%) in the test on velvet leaf [2] (setting [4]).
